Data taken from patent publication US4288437A, “2-[(Amino)-aryl-methylene]-benzo[b]thiophen-3(2H)-ones” (Boehringer Ingelheim GmbH, priority 1979, dated 1981).
Like-named read-outs stand apart in the source and are kept apart here.

How the values were obtained:
[1] = test system: tonic extensor spasm of the rear legs of male mice under maximum electric shock; assay: Anticonvulsant activity in mice (inhibition of tonic extensor spasm under maximum electric shock); assay type: in vivo, male SPF mice (Chbb:NMRI); conditions: Mus musculus, po, p.o., 10 mice/dose
Description: 1. Anticonvulsant activity in mice
The anticonvulsant activity was tested as the inhibition of the tonic extensor spasm of the rear legs of male mice under maximum electric shock.
The test animals were male SPF mice (Chbb:NMRI) weighing 20 to 26 g which, up to one hour before oral administration of the test compound, had access to standard feed and drinking water.
The test procedure was based on that of SWINYARD, BROWN and GOODMAN (J. Pharmacol. Exp. Ther. 106, 319 [1952]). The electrical shock equipment was manufactured in accordance with information provided by WOODBURY and DAVENPORT (Arch. int. Pharmacodyn. 92, 97 [1952]). The electrical stimuli were applied to the heads of the animals above the eyes using chamois-covered steel ball electrodes moistened with a 0.9% NaCl solution. The stimulus lasted 0.2 sec. using alternating current of 50 Hz and 50 mA. There was a […] and then a tonic stretching spasm of the extremities in the case of all the controls.
The substance to be tested was suspended in a 1% tylose slurry and was perorally administered in a volume of 0.1 ml/10 gm mouse to 10 mice/dose. […], and the ED50 values were determined as the dosages sufficient to protect 50% of the animals against the tonic stretching spasm of the rear extremities, either graphically or by the method of LITCHFIELD and WILCOXON (J. Pharmacol. Exp. Ther. 96, 99 [1949]).

[2] = Orienting acute toxicity in mice; conditions: mouse, in vivo, po, observation period 7 days
Description: The orienting acute toxicity of the compounds was determined after administering a dose to groups of 6 or 10 mice each with body weights between 10 and 26 gm (observation period: 7 days).

[3] = 0.5 h, shock 30 minutes after administration, read-out: ED50, 30 minutes
[4] = 2.5 h, shock 150 minutes after administration, read-out: ED50, 150 minutes
[5] = 5 h, shock 300 minutes after administration, read-out: ED50, 300 minutes

In the case of N/C(=C1/Sc2ccccc2C1=O)c1ccccc1 [A, (E)-2-[(amino)phenylmethylene]-benzo[b]thiophen-3(2H)-one], the ED50 [1, 3] is reported as 12.8 mg/kg, the ED50 [1, 4] is reported as 37 mg/kg and the ED50 [1, 5] is reported as 46 mg/kg. For the same molecule, the LD50 at 168 h [2] was 2400 mg/kg.

Molecule CN/C(=C1/Sc2ccccc2C1=O)c1ccccc1 [B, (E)-2-[(methylamino)phenylmethylene]-benzo[b]thiophen-3(2H)-one] has an ED50 [1, 3] of 90 mg/kg, an ED50 [1, 4] of 38 mg/kg and an ED50 [1, 5] of 49 mg/kg. For the same molecule, the LD50 at 168 h [2] was over 1000 mg/kg.

Work on N/C(=C1/Sc2ccccc2C1=O)c1ccccc1Cl [C, (E)-2-[(amino)-(2-chloro-phenyl)methylene]-benzo[b]thiophen-3(2H)-one] yielded an ED50 [1, 3] of 7 mg/kg, an ED50 [1, 4] of 4.4 mg/kg and an ED50 [1, 5] of 5 mg/kg. It also gave an LD50 at 168 h [2] of 500 to 1000 mg/kg.

O=C1/C(=C(\NCCO)c2ccccc2)Sc2ccccc21 [D, (E)-2-{[(2-hydroxy-ethyl)amino]phenylmethylene}benzo[b]thiophen-3(2H)-one] showed an ED50 [1, 3] of 33 mg/kg, an ED50 [1, 4] of 41 mg/kg and an ED50 [1, 5] of 42.5 mg/kg. For the same molecule, the LD50 at 168 h [2] was over 1000 mg/kg.

Molecule Cc1ccccc1/C(N)=C1\Sc2ccccc2C1=O [E, (E)-2-[(amino)-(2-methyl-phenyl)methylene]-benzo[b]-thiophen-3(2H)-one] has an ED50 [1, 3] of 22.8 mg/kg, an ED50 [1, 4] of 13.3 mg/kg and an ED50 [1, 5] of 15.7 mg/kg. The LD50 at 168 h [2] was over 1000 mg/kg.

CCN/C(=C1/Sc2ccccc2C1=O)c1ccccc1 [F, (E)-2-[(ethylamino)phenylmethylene]-benzo[b]thiophen-3(2H)-one] gave an ED50 [1, 3] of 22.5 mg/kg, an ED50 [1, 4] of 54.6 mg/kg and an ED50 [1, 5] of 79 mg/kg. The LD50 at 168 h [2] was over 1000 mg/kg.
